Source: patent US11040981B2, “Pyrrolotriazine compounds and methods of inhibiting TAM kinases” (Syros Pharmaceuticals, Inc., priority 2017, dated 2021)

What was measured:
AXL = molecular target: T1, AXL (Homo sapiens, UniProt P30530); experiment: TR-FRET kinase activity assay, AXL; format: biochemical; settings: ATP at Km, 60 minutes
T1 sequence (P30530 26-894): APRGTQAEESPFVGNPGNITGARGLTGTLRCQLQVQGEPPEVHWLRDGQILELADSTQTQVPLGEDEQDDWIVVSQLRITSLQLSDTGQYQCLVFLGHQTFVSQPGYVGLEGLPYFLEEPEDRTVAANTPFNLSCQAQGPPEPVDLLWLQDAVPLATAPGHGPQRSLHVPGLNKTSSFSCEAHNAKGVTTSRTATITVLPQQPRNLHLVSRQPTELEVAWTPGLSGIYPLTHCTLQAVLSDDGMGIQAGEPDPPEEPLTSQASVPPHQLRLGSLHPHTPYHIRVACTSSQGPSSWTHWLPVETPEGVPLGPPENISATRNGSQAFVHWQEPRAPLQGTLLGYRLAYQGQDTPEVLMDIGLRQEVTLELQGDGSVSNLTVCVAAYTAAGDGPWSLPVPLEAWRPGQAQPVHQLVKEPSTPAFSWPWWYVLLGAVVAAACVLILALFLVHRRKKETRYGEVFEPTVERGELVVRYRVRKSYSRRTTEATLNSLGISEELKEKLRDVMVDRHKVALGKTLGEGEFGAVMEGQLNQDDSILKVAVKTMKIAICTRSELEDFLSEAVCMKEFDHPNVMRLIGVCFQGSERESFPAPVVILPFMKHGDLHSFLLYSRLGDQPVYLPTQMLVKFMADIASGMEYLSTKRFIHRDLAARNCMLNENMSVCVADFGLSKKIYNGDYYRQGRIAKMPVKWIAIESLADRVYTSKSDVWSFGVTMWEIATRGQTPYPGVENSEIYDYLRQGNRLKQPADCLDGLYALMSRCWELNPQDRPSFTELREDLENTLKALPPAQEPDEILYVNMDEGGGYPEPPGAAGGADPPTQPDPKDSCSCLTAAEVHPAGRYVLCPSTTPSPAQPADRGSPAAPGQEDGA
In short: (§1)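 Each kinase phosphorylated a fluorescent-labelled tyrosine peptide in 50 mM HEPES pH 7.5, 10 mM MgCl2, 1 mM EGTA, 0.01% Brij 35, 1 mM DTT at RT, with ATP at Km for that enzyme. After 60 min, EDTA quench and Eu-anti-phosphotyrosine antibody (30 min, dark); IC50 from TR-FRET decrease.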

FLT3 = molecular target: T2, FLT3 (Homo sapiens, UniProt P36888); experiment: TR-FRET kinase activity assay, FLT3; format: biochemical; settings: ATP at Km, 60 minutes
T2 sequence (P36888 27-993): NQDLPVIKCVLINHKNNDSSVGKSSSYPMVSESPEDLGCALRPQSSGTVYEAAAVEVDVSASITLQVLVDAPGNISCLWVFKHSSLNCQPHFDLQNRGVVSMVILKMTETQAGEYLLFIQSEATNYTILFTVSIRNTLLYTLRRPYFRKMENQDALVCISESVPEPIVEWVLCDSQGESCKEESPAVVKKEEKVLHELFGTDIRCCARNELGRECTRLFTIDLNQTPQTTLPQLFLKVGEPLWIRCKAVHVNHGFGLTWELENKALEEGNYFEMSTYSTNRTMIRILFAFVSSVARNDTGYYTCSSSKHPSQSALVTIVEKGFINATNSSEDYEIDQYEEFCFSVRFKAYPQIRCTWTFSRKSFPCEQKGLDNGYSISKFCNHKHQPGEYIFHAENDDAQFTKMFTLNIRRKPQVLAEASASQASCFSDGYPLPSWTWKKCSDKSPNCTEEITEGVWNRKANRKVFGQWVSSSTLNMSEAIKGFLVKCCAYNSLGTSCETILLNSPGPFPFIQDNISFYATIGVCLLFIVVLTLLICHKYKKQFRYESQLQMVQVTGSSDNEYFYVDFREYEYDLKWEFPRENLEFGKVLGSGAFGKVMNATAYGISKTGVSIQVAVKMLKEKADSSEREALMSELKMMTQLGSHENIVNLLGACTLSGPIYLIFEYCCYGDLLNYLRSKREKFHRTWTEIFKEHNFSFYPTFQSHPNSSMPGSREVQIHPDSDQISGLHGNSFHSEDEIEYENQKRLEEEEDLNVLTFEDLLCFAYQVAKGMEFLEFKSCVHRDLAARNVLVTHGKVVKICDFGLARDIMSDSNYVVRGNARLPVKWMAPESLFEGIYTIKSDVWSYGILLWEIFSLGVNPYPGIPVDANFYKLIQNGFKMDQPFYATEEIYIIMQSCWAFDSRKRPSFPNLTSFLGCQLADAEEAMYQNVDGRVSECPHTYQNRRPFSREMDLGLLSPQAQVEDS
In short: as §1

| IC50 (AXL) [nM] | IC50 (FLT3) [nM] | SMILES |
| --- | --- | --- |
| 1000 to 10000 | 1000 to 10000 | CC(CC1COC1)Nc1ncc2c(-c3cnn(C4COC4)c3)cc([C@H]3CC[C@H](O)CC3)n2n1 (mixture of isomers) [Compound 447] |
| ≤ 100 | ≤ 100 | CC[C@H](C)Nc1ncc2c(-c3ccc(CN4CCN(C)CC4)cc3)cc([C@H]3CC[C@](C)(O)CC3)n2n1 (relative stereo) [Compound 132, (trans)-4-(2-((S)-sec-butylamino)-5-(4-((4-methylpiperazin-1-yl)methyl)phenyl)pyrrolo[2,1-f][1,2,4]triazin-7-yl)-1-methylcyclohexanol] |
| ≤ 100 | 100 to 1000 | COC[C@H](C)Nc1ncc2c(-c3cnn(C4COC4)c3)cc([C@H]3CC[C@](C)(O)CC3)n2n1 (single isomer, unassigned) [Compound 452] |
| ≤ 100 | 100 to 1000 | COC[C@H](C)Nc1ncc2c(-c3cnn(C4COC4)c3)cc([C@H]3CC[C@@](C)(O)CC3)n2n1 (single isomer, unassigned) [Compound 453] |
| ≤ 100 | ≤ 100 | CC[C@H](C)Nc1ncc2c(-c3ccc(CN4CCN(C)CC4)cc3)cc(C3CCC(C)(O)CC3)n2n1 (stereo in doubt) [Compound 131, (cis)-4-(2-((S)-sec-butylamino)-5-(4-((4-methylpiperazin-1-yl)methyl)phenyl)pyrrolo[2,1-f][1,2,4]triazin-7-yl)-1-methylcyclohexanol] |
| 100 to 1000 | 1000 to 10000 | CCC1(Nc2ncc3c(-c4ccc(CN5CCN(C)CC5)cc4)cc([C@H]4CC[C@H](O)CC4)n3n2)CCC1 [Compound 126] |
| ≤ 100 | 100 to 1000 | CCCCC[C@H](C)Nc1ncc2c([C@H]3CC[C@@H](C(=O)N4CCN(C)CC4)CC3)cc([C@H]3CC[C@H](O)CC3)n2n1 [Compound 127] |
| ≤ 100 | ≤ 100 | CC[C@H](C)Nc1ncc2c(C3=CCOCC3)cc([C@H]3CC[C@H](O)CC3)n2n1 [Compound 128] |
| 100 to 1000 | 1000 to 10000 | CC[C@H](C)Nc1ncc2c(C3CCOCC3)cc([C@H]3CC[C@H](O)CC3)n2n1 [Compound 129, (trans)-4-(2-((S)-sec-butylamino)-5-(tetrahydro-2H-pyran-4-yl)pyrrolo[2,1-f][1,2,4]triazin-7-yl)cyclohexanol] |
| ≤ 100 | 100 to 1000 | COC[C@H](C)Nc1ncc2c(-c3ccc(CC(=O)O)cc3)cc([C@H]3CC[C@H](O)CC3)n2n1 [Compound 133] |
| ≤ 100 | 1000 to 10000 | COC[C@H](C)Nc1ncc2c(-c3ccc(-c4nn[nH]n4)cc3)cc([C@H]3CC[C@H](O)CC3)n2n1 [Compound 134] |
| ≤ 100 | 100 to 1000 | COC[C@H](C)Nc1ncc2c(-c3ccnc(N4CCOCC4=O)c3)cc([C@H]3CC[C@H](O)CC3)n2n1 [Compound 423] |
| ≤ 100 | 100 to 1000 | CNS(=O)(=O)c1ccc(-c2cc([C@H]3CC[C@H](O)CC3)n3nc(N[C@@H](C)COC(F)F)ncc23)cn1 [Compound 424] |
| ≤ 100 | 100 to 1000 | COC[C@H](C)Nc1ncc2c(C3=CCN(C(=O)OC(C)(C)C)CC3)cc([C@H]3CC[C@H](O)CC3)n2n1 [Compound 425] |
| ≤ 100 | 100 to 1000 | COC[C@H](C)Nc1ncc2c(-c3ccnc(N4CC5(COC5)C4)c3)cc([C@H]3CC[C@H](O)CC3)n2n1 [Compound 426] |
| ≤ 100 | 100 to 1000 | COC[C@H](C)Nc1ncc2c(-c3ccnc(N4CCC5(CC4)COC5)c3)cc([C@H]3CC[C@H](O)CC3)n2n1 [Compound 427] |

| IC50 (AXL) [nM] | IC50 (FLT3) [nM] | SMILES |
| --- | --- | --- |
| ≤ 100 | 100 to 1000 | COC[C@H](C)Nc1ncc2c(-c3ccnc(N4CCC5(CCO5)CC4)c3)cc([C@H]3CC[C@H](O)CC3)n2n1 [Compound 430] |
| ≤ 100 | 100 to 1000 | COC[C@H](C)Nc1ncc2c(-c3ccnc(NC4CCOCC4)c3)cc([C@H]3CC[C@H](O)CC3)n2n1 [Compound 431] |
| ≤ 100 | 100 to 1000 | CCC(=O)N1CCN(c2cc(-c3cc([C@H]4CC[C@H](O)CC4)n4nc(N[C@@H](C)COC)ncc34)ccn2)CC1 [Compound 432] |
| ≤ 100 | 100 to 1000 | COC[C@H](C)Nc1ncc2c(-c3ccnc(N4CCNCC4)c3)cc([C@H]3CC[C@H](O)CC3)n2n1 [Compound 434] |
| ≤ 100 | 100 to 1000 | C[C@@H](COC(F)F)Nc1ncc2c(-c3cnn(CCS(C)(=O)=O)c3)cc([C@H]3CC[C@H](O)CC3)n2n1 [Compound 436] |
| ≤ 100 | ≤ 100 | C[C@@H](COC(F)F)Nc1ncc2c(-c3cnn(CCC#N)c3)cc([C@H]3CC[C@H](O)CC3)n2n1 [Compound 437] |
| ≤ 100 | 1000 to 10000 | COC[C@H](C)Nc1ncc2c(-c3ccnc(N4CCOC4=O)c3)cc([C@H]3CC[C@H](O)CC3)n2n1 [Compound 438] |
| ≤ 100 | 100 to 1000 | COC[C@H](C)Nc1ncc2c(-c3cnn(CC4CCO4)c3)cc([C@H]3CC[C@H](O)CC3)n2n1 (stereo partly drawn) [Compound 439] |
| ≤ 100 | 1000 to 10000 | COC[C@H](C)Nc1ncc2c(-c3cnn(C(C)(C)c4nnc(C)o4)c3)cc([C@H]3CC[C@H](O)CC3)n2n1 [Compound 440] |
| ≤ 100 | 100 to 1000 | COC[C@H](C)Nc1ncc2c(-c3csc(C(=O)N4CCOCC4)c3)cc([C@H]3CC[C@H](O)CC3)n2n1 [Compound 444] |
| ≤ 100 | 100 to 1000 | COC[C@H](C)Nc1ncc2c(-c3ccnc(N4C[C@H]5CC[C@@H](C4)O5)c3)cc([C@H]3CC[C@H](O)CC3)n2n1 [Compound 445] |
| ≤ 100 | ≤ 100 | C[C@@H](CC(F)(F)F)Nc1ncc2c([C@H]3CC[C@@H](C(=O)N4CCOCC4)CC3)cc([C@H]3CC[C@H](O)CC3)n2n1 [Compound 446] |
| 100 to 1000 | 1000 to 10000 | COC[C@H](C)Nc1ncc2c(C#CC(C)(C)C(=O)N3CCOCC3)cc([C@H]3CC[C@H](O)CC3)n2n1 [Compound 449] |
| ≤ 100 | 1000 to 10000 | COC[C@H](C)Nc1ncc2c(-c3cnn(C(C)(C)C(=O)N4CCC(C)(O)CC4)c3)cc([C@H]3CC[C@H](O)CC3)n2n1 [Compound 450] |
| ≤ 100 | 100 to 1000 | COC[C@H](C)Nc1ncc2c(-c3cnn(C(C)(C)C(=O)N4CCC(C)(C#N)CC4)c3)cc([C@H]3CC[C@H](O)CC3)n2n1 [Compound 451] |
| ≤ 100 | 1000 to 10000 | COC[C@H](C)Nc1ncc2c(-c3cnn(C(C)(C)CN4CCOCC4)c3)cc([C@H]3CC[C@H](O)CC3)n2n1 [Compound 459] |

| SMILES | IC50 (AXL) [nM] | IC50 (FLT3) [nM] |
| --- | --- | --- |
| CC[C@H](C)Nc1ncc2c(C3=CCNCC3)cc([C@H]3CC[C@H](O)CC3)n2n1 [Compound 130] | ≤ 100 | ≤ 100 |
| C[C@@H](CC(F)(F)F)Nc1ncc2c(C3=CCNCC3)cc([C@H]3CC[C@H](O)CC3)n2n1 [Compound 442] | ≤ 100 | ≤ 100 |
| COC[C@H](C)Nc1ncc2c(C3=CCNCC3)cc([C@H]3CC[C@H](O)CC3)n2n1 [Compound 443] | ≤ 100 | 1000 to 10000 |
| C[C@H](CC(F)(F)F)Nc1ncc2c(C3=C[C@H]4CC[C@@H](C3)N4C(=O)OC(C)(C)C)cc([C@H]3CC[C@H](O)CC3)n2n1 [Compound 456] | ≤ 100 | ≤ 100 |
